Data as given in publication PMC11912111 (Advanced Healthcare Materials, 2025).
Where two headings read alike, the source gives them in different places.

Legend:
[1] = cited from earlier work
GLP-1R = details: GL can also activate GLP-1R; cited from earlier work
[2] = Teduglutide stability in the foam after the gassing process; assay type: physicochemical; details: Ted-loaded foam and effervescence-like formulation, n = 3 (Figure S3)

In the case of Glepaglutide, the elimination half-life ([1]; in humans) is given as “up to 50 h” and the “binding affinity at GLP-1R” value (GLP-1R) is given as “low binding affinity”.
In the case of Glucagon-like peptide 2 [GLP-2], the elimination half-life ([1]; native GLP-2, healthy individuals, breakdown by DPP-4) is listed as 7 min.
With teduglutide the “stability of Ted after the foaming process (concentration change)” value [2] was “degraded after the foaming process”.
